One data set has as its system CCI rats. Description: Mechanical allodynia in mononeuropathic pain model (chronic constrictive injury, CCI, Bennett model). The conditions noted are these: for PWT ipsilateral hind paw (von Frey): 50 mg/kg p.o. single dose, mean ± SEM; for anti-allodynic effect on ipsilateral hind paw vs vehicle (in words): single dose 50 mg/kg, p.o. Format: in vivo, SD rats. The source says:
Adult male SD rats weighing 250-300 gm (Charles River Laboratories, San Diego, Calif.) were used. The animal room was lighted artificially at a 12-hr light-dark cycle (7:00 A.M. to 7:00 P.M) with water and food supply ad libitum. Animals were allocated randomly into groups. Seven days before establishing the mononeuropathic pain disease model, rats were trained on a metal mesh floor, covered with a plastic box (10×10×18 cm) 1-2 hr per day to habituate. During the habituating phase, non-painful tactile stimulation on the plantar surface of each hind paw was induced by a set of calibrated von Frey filaments, through the mesh floor, as described in example 2.
Following the 7-day training phase, the animals were anesthetized by i.p. injection of sodium pentobarbital (65 mg/kg, Abbott Lab, Chicago, Ill.). Under aseptic procedures, the skin of the left thigh was cut open for ˜2 cm. Mid-thigh level of the common sciatic nerve was exposed after blunt separation of the muscles. Two 4-0 silk and one 4-0 chromic gut sutures (both from Ethicon, Somerville, N.J.) were loosely ligated around the nerve, with a 1-1.5 mm interval between each of them. Skin wound was then close with wound clips. The right side (i.e., the contralateral side) was not surgically injured. After recovery from surgery, rats showing post-surgery neurological deficits or poor grooming were excluded from the experiments. This surgical procedure (i.e., chronic constrictive injury, CCI, or Bennett model) to establish mononeuropathic pain disease model has been described elsewhere (Bennett, G. J. and Xie, Y. K.: A peripheral mononeuropathy in rat that produces disorders of pain sensation like those seen in man. Pain, 33: 87-107, 1988).
On days 1, 3, 4, 7, 9, 11, and 14 after surgery, animals were tested for mechanical allodynia with von Frey filaments as described previously. On or around post-surgical day 14, the ipsilateral hind paw, felt to 5 grams, an indication of allodynia began to manifest mechanical allodynia (i.e., amplified response to non-painful tactile stimulation by von Frey filaments). The contralateral hind paws remained above the 5-gram level (i.e., no allodynia).
After manifestation of this allodynia, Compound 62 (50 mg/kg, p.o.), Compound 63 (50 mg/kg, p.o.), Compound 66 (50 mg/kg, p.o.), Compound 23 (50 mg/kg, p.o.), 4-hydroxy-tempol (TEMPOL, 50 mg/kg, p.o.), or piroxicam (a COX1 inhibitor, 50 mg/kg, p.o.) were administered to randomly-assigned animals. Changes of mechanical allodynia in the ipsilateral hind paw were recorded at several time points over the course of up to 24 hr.

The nature of data set [1]: Microsomal stability in rat liver microsomes. Format: in vitro ADME. The settings on record: rat liver microsomes 0.5 mg/ml, 1 mM NADPH, ~500 ng/ml compound, 37° C. As to the method:
Frozen Sprague-Dawley rat liver microsomes (RLM) were thawed on ice and gently mixed before use. The final reaction mixture consisted of a nitrone compound of this invention (at ˜500 ng/ml), 1 mM NADPH, and 0.5 mg/ml of RLM protein in 0.1 M PBS (pH7.4), with organic solvent concentration not exceeding 1% (v/v). Per set of incubations, a positive control compound was included. The mixture was first pre-incubated 3 to 5 minutes at 37° C. without NADPH, and the reaction was then initialized by the addition of NADPH and incubated at 37° C. for up to 30 minutes. An aliquot of the reaction mixture was sampled at the initiation of the reaction and at designated time after reaction started. The drawn samples were quenched with acetonitrile, diluted with mobile phase to ensure the detection of test article in the linear range, and analyzed by LC/MS/MS. Half-life or percentage of remaining nitrone compound was calculated using standard methods. A similar method, or a slight variation of it, was used to test the stability of nitrones in human liver microsomes (HLM).
A general note: Liver microsomes are a subcellular fraction often used to study metabolism.

Data set [2] deals with carrageenan-sensitized inflammatory model of rat. Description: Carrageenan-sensitized thermal hyperalgesia (Hargreaves test). Format: in vivo. The conditions noted are these: 50 mg/kg oral; for PWL (thermal paw withdrawal latency), carrageenan paw: mean ± SEM. On the procedure: In this experiment, animals were habituated to the test environment for 2 days. Each rat was individually placed on a transparent perplex glass floor, covered with a plastic box (10×10×18 cm), and allowed 0.5-1 hr to habituate. After the acclimation period, basal thermal withdrawal latency (PWL, time interval between heat stimulation and paw withdrawal) was measured by exposing the plantar surface of a rats hind paw to a beam of radiant heat generated from a focused projection bulb through a transparent perplex glass surface (Hargreaves test; Hargreaves, K. R., Dubner, R., Brown, F., Flores, C. & Joris, J.: A new and sensitive method for measuring thermal nociception in cutaneous hyperalgesia. Pain, 32: 77-88, 1988). The PWL was averaged from at least two trials separated by a 2 min interval. A timer was used to measure the withdrawal latency and a cut of time of 20-sec was used to prevent tissue damage. Before the test on STZ-diabetic rats, the intensity of the radiating heat was adjusted to the level that caused naive animal to withdraw its paw at around 10 seconds.
After a stable basal PWL was obtained, the animals were briefly anesthetized with isoflurane (2-5% to effect). One side of their hind paws received an intraplantar injection of lambda carrageenan (2 mg in 100 microliter sterile saline, Sigma, St. Louis, Mo.). The contralateral side received no injection and served as an intra-subject control. The animals were then returned to their home cages and transferred to the individual testing chambers for heat thermal hyperalgesic testing, 2.5 hr after carrageenan injection. 3-hr post-carrageenan injection, PWLs of both hind paws (i.e., ipsilateral and contralateral) were measured at several time points post-carrageenan injection (15-min to 24-hr).
For compound testing, rats were randomly enrolled into groups that, immediately after the 3-hr post-carrageenan PWL was obtained, received oral dosing of Compound 62 (50 mg/kg), Compound 63 (50 mg/kg), vehicle (1 ml/kg), or indomethacin (30 mg/kg). Compound 62 and Compound 63 were prepared as a suspension in vehicle (96% of 0.5% CMC and 4% of 10% Tween 80) while indomethacin was prepared as a 30 mg/ml in normal saline.
(Carrageenan injected into the paw causes an acute inflammation.)

Where [3] appears, read: post-dosing time −15 min (pre-dose).
[4] abbreviates: post-dosing time 0 min (3 hr post-carrageenan).

On to `CC(C)(C)/[N+]([O-])=C/c1ccc(S(=O)(=O)N2CCOCC2)cc1` [Compound 23, N-(tert-Butyl)-C-[4-(morpholine-4-sulfonyl)phenyl]nitrone], for which the “PWT ipsilateral hind paw (von Frey)” value in the data set with CCI rats (post-dosing time 30 min) stood at 7.67 ± 0.80 gm; with CCI rats (post-dosing time 60 min) it was 8.17 ± 1.52 gm; in the data set with CCI rats (post-dosing time 300 min), 4.43 ± 1.35 gm; with CCI rats (post-dosing time 1440 min) it was 4.67 ± 0.84 gm; in the data set on CCI rats (setting [3]), 2.43 ± 0.54 gm. Moreover, the “anti-allodynic effect on ipsilateral hind paw vs vehicle (in words)” value (from here on “anti-allodynic effect … vs vehicle (in words)”) in the data set with CCI rats is “statistically significant anti-allodynic effects”.

`CC(C)(C)/[N+]([O-])=C/c1ccc(S(C)(=O)=O)cc1` [Compound 62, N-tert-Butyl-C-[4-(methanesulfonyl)phenyl]nitrone]: the “% of Nitrone Remaining at 30 min (Rat)” value in data set [1] was determined as 100%. The “effect on carrageenan-sensitized heat hyperalgesia compared to vehicle-treated carrageenan-paw (in words)” value in data set [2] is “statistically significant effect”. For the same compound, the “PWL (thermal paw withdrawal latency), carrageenan paw” value stood at 4.65 ± 0.63 s in data set [2] (setting [4]); 7.33 ± 1.43 s in data set [2] (post-dosing time 15 min); 7.55 ± 1.08 s in data set [2] (post-dosing time 120 min); 5.38 ± 1.11 s in data set [2] (post-dosing time 240 min); 5.33 ± 1.09 s in data set [2] (post-dosing time 1400 min). Moreover, the “PWT ipsilateral hind paw (von Frey)” value in the data set with CCI rats (post-dosing time 5 min) is 2.86 ± 0.94 gm; with CCI rats (post-dosing time 120 min) it was 16.71 ± 3.44 gm; in the data set with CCI rats (post-dosing time 240 min), 15.14 ± 3.90 gm; with CCI rats (post-dosing time 360 min), 5.46 ± 1.46 gm; with CCI rats (post-dosing time 1440 min), 3.43 ± 1.02 gm; with CCI rats (setting [3]) it was 3.17 ± 1.10 gm. In addition, the “anti-allodynic effect … vs vehicle (in words)” value in the data set on CCI rats is on record as “rapid onset but short-lasting anti-allodynic effect”.

`CC(C)(C)/[N+]([O-])=C/c1ccc(S(C)(=O)=O)cc1S(C)(=O)=O` [Compound 63, N-tert-Butyl-C-(2,4-bis-methanesulfonylphenyl)nitrone]: the “% of Nitrone Remaining at 30 min (Rat)” value in data set [1] is 97%. Further, the “effect on carrageenan-sensitized heat hyperalgesia compared to vehicle-treated carrageenan-paw (in words)” value in data set [2] is “statistically significant effect”. For the same compound, the “PWL (thermal paw withdrawal latency), carrageenan paw” value in data set [2] (setting [4]) turned out to be 4.98 ± 0.85 s; in data set [2] (post-dosing time 15 min), 4.93 ± 1.22 s; in data set [2] (post-dosing time 60 min), 4.15 ± 1.04 s; in data set [2] (post-dosing time 180 min), 3.65 ± 0.64 s; in data set [2] (post-dosing time 1400 min), 5.70 ± 0.71 s. Also, the “PWT ipsilateral hind paw (von Frey)” value came out at 18.4 ± 10.42 gm in the data set on CCI rats (post-dosing time 30 min); 18.8 ± 11.29 gm in the data set with CCI rats (post-dosing time 60 min); 5.20 ± 1.63 gm with CCI rats (post-dosing time 300 min); 3.60 ± 1.30 gm in the data set with CCI rats (post-dosing time 1440 min); 3.88 ± 0.97 gm in the data set with CCI rats (setting [3]). Also, the “anti-allodynic effect … vs vehicle (in words)” value in the data set with CCI rats was “produced anti-allodynic effects on ipsilateral hind paws”.

With `CCS(=O)(=O)c1ccc(/C=[N+](\[O-])C(C)(C)C)c(S(=O)(=O)CC)c1` [Compound 64, N-tert-Butyl-C-(2,4-bis-ethanesulfonylphenyl)nitrone], the “% of Nitrone Remaining at 30 min (Rat)” value in data set [1] was determined as 100%.

Consider `CC(C)(C)/[N+]([O-])=C/c1ccccc1S(C)(=O)=O` [Compound 66, N-tert-Butyl-C-(2-methanesulfonylphenyl)nitrone], for which the “PWT ipsilateral hind paw (von Frey)” value in the data set with CCI rats (post-dosing time 30 min) was 5.33 ± 0.42 gm; in the data set with CCI rats (post-dosing time 60 min) it was 4.12 ± 0.91 gm; in the data set with CCI rats (post-dosing time 300 min), 5.33 ± 1.12 gm; in the data set on CCI rats (post-dosing time 1440 min) it was 1.57 ± 0.23 gm; in the data set with CCI rats (setting [3]) it was 1.97 ± 0.84 gm. Moreover, the “anti-allodynic effect … vs vehicle (in words)” value in the data set on CCI rats is recorded as “no significant anti-allodynic effect”.

Source of the values: US20100168112A1, “2-Substituted and 4-substituted aryl nitrone compounds” (RENOVIS, INC., priority 2004, published 2010).
